Experimental data from patent US12286423B2, “Antiviral 1,3-di-oxo-indene compounds” (Novartis AG, priority 2020, dated 2025).

Tests used:
[1] = system: 48 rhinovirus types and coxsackievirus A21, B3, enterovirus 70 and echovirus 11; conditions: cited from earlier work
[2] = system: rhinoviruses and enteroviruses; conditions: cited from earlier work
[3] = cited from earlier work; for bioavailability / metabolization and excretion: in vivo
[4] = cited from earlier work
[5] = cited from earlier work; remark: listed apart in the source
HRV A16 = HRV A16 CPE inhibition assay; format: cell-based; conditions: Human rhinovirus sp.; HRV A16, cytopathic effect inhibition
Experimental: (§1) Bioactivity of the Compounds of the Invention was Determined Using the Following Methods. Determination of Drug Efficacy Against Picornaviruses Using Cytopathic Effect (CPE) Inhibition Assay
(§2) In the assay, HeLa (human cervical cancer cells), MRC-5 (human fetal lung fibroblast cells), and RD cells (derived from human rhabdomyosarcoma) were employed. For comparison, ribavirin (Riv), Pleconaril (pleco), and […] (BTA) were used as controls. Reagents were dissolved at a concentration of 10-40 mg/ml in 100% dimethyl sulfoxide (DMSO). Water-soluble reagents were dissolved in PBS (−) solution and stored at −20° C. On the day of the experiment, they were used in 3 fold to 5 fold concentrations in such a manner that the concentration of dimethyl sulfoxide in each well was between 0.5% and 1%.
(§3) Pharmaceutical efficacy was determined using a virus-induced cytopathic effect (CPE) inhibition assay. In this regard, after cells suitable for viruses were grown in 96-well plates, dilutions of viruses in DME supplemented with 2% FBS (DME/2% FBS) or MEM supplemented with 2% FBS (MEM/2% FBS) were inoculated in an amount of […] with a concentration corresponding to 100 CCID50 (50% cell culture infective dose) into each well of the plates, and incubated for 30 min-1 hr at 33° C. or 37° C. to allow the viruses to adsorb onto the cells. The culture medium was removed before aliquots of drug dilutions with various concentrations were added in an amount of 100 μl to each well. While HRV (human rhinovirus) was grown at 33° C., the other viruses were incubated in a 37° C. CO2 incubator for 2-3 days. Alternatively, the cells were cultured for 2-3 days without removal of the medium after they were added with 50 μl of each drug dilution having a 2-fold higher concentration and then with 50 μl of the virus dilution. Viruses were incubated in host HeLa cells at 37° C. for 2-3 days in DME/2% or MEM/2% FBS.
(§4) For HeLa cells, the drugs were measured for EC50 (50% maximal effective concentration), which is the concentration of a drug inducing a response halfway between the baseline and maximum, using an MTT assay. With regard to RD and MRC-5 cells, CPE was determined using FDA (Fluorescein diacetate) or MTT. In order to determine the effect of drug toxicity on efficacy results, at the time of inoculation with the virus, mock-infection was also included. A virus-free medium was added to a cell culture, which was then subjected to the same treatment as the mock-infected cells inoculated with the virus. That is, the medium was removed after one hour of incubation, and dilutions of drugs in the medium were added once more. Following incubation for 2-3 days, the cells were observed under a microscope and the drugs were determined for CC50 (50% cytotoxic concentration) at which 50% of the cells were killed, using an MTT assay in which counts of viable cells in mock-infected wells containing drugs were compared to those of viable cells in control wells containing no drugs. In an FDA hydrolysis assay, FDA was added to each well after removal of the medium, and incubated for 20-30 min before fluorescence intensity was measured using a spectrofluorometer to determine CPE in the same manner as in MTT.
(§5) In addition, antiviral effects can be calculated using Mathematical Formula 2 below: Antiviral Effect=[A(Drug/Virus)−A(Virus Control)/A(Cell control)−A(Virus Control)]
(§6) If the survival rate is 100%, its antiviral effect is 100% whereas if the survival rate is 0%, its antiviral effect is none. […]
(§7) Specifically, cells grown to confluence in 96-well plates were infected with 100 50% cell culture infected doses (CCID50) of virus. After an adsorption period of 2 hrs at 37° C., the virus was removed and serial dilutions of the compounds were added. […] After removal of the medium, 90 μl of a culture medium and 10 μl of MTS-phenazine methosulfate (Promega, Leiden, The Netherlands) were added to each well. […]

HRV A1B = HRV A1B CPE inhibition assay; format: cell-based; conditions: Human rhinovirus sp., cytopathic effect inhibition, read-out: HRV A1B_CPE (EC50 μM)
Experimental: as §1, §2, §3, §4, §5, §6, §7

HRV A29 = HRV A29 CPE inhibition assay; format: cell-based; conditions: Human rhinovirus sp.; HRV A29, cytopathic effect inhibition
Experimental: as §1, §2, §3, §4, §5, §6, §7

HRV B14 = HRV B14 CPE inhibition assay; format: cell-based; conditions: Human rhinovirus sp.; HRV B14, cytopathic effect inhibition
Experimental: as §1, §2, §3, §4, §5, §6, §7

[6] = Cytotoxicity (CC50) in mock-infected cells, MTT assay; format: cell-based; conditions: human, HeLa cells (mock-infected), 50% cytotoxic concentration, read-out: CYTOTOX (CC50 μM)
Experimental: as §4
That is, the survival rate (% survival) of mock-infected cells for cytotoxicity measurement was calculated using the Mathematical Formula 1 below: Cell Drug=Survival by [A(Drug)−A(Background solution)/A(Cell control)−A(Background×100% Solution)]
While 100% cell survival means no cytotoxicity of the drug, the highest cytotoxicity is reflected by 0% cell survival. The 50% cytotoxic concentration was defined as the concentration required to reduce the cell number by 50%. This concentration of the drug is represented as CC50. Higher values mean lower cytotoxicity. […]
In Mathematical Formulae 3 and 4 above, • OD (CC) represents the OD of the background cell culture that is neither induced by a virus nor treated by chemical, • OD (VC) represents the OD of the control cell culture that is induced by a virus but not treated by chemical, • OD (Virus+Compound) represents the OD of the cell culture infected by a virus that has been treated with a concentrated compound, • OD (Compound) represents the OD of the cell culture that has been treated with a concentrated compound only, and • OD (Blank) represents the OD of the well to which only the cell culture has been added.
The effective concentration (EC50) represents the concentration of a drug at which 50% of cells are allowed to survive by CPE of an induced virus, and the cytotoxicity concentration (CC50) represents the concentration of a drug at which a compound has killed 50% of cells, and they were calculated by the logarithmic interpolation.

C15_C3 REPLICON = experiment: C15_C3 replicon assay; format: cell-based
[7] = in vivo; cited from earlier work

CCOC(=O)/C=C/[C@H](C[C@@H]1CCNC1=O)NC(=O)[C@@H](CC(=O)[C@@H](NC(=O)c1cc(C)on1)C(C)C)Cc1ccc(F)cc1 [AG 7088]
concentration range of effect in the cell culture [1]: nanomolar concentration range

CCC(=O)C(CCCCCCOc1ccc(OC)cc1Cl)C(=O)CC [Arildone]
antiviral effects in the cell culture [2]: very good antiviral effects | bioavailability [3]: low bioavailability | solubility [4]: poor solubility

CC(C)S(=O)(=O)n1c(N)nc2ccc(/C(=N/O)c3ccccc3)cc21 [Enviroxime]
pharmacokinetics in clinical studies [5]: bad pharmacokinetics | therapeutic effects in clinical studies [5]: insignificant or few therapeutic effects

Cc1c(S(C)(=O)=O)c[nH]c1C(=O)N[C@]12C(=O)c3c(N)cccc3[C@@]1(O)Oc1cc([C@H]3C[C@@H]3C)ccc12 [Example 28, N-((4bR,9bR)-1-amino-4b-hydroxy-7-((1S,2S)-2-methylcyclopropyl)-10-oxo-4b,10-dihydro-9bH-indeno[1,2-b]benzofuran-9b-yl)-3-methyl-4-(methylsulfonyl)-1H-pyrrole-2-carboxamide]
EC50 (HRV A16): 0.16 µM | EC50 (HRV A1B): 0.037 µM | EC50 (HRV A29): 0.045 µM | EC50 (HRV B14): 0.016 µM | CC50 [6]: 19.8 µM | EC50 (C15_C3 REPLICON): 1.85 µM

Cc1cc(CCCOc2c(C)cc(-c3noc(C(F)(F)F)n3)cc2C)on1 [Pleconaril]
oral bioavailability ([3]; oral): very good oral bioavailability

Cc1cc(CCCCCOc2c(Cl)cc(C3=NCCO3)cc2Cl)on1 [WIN 54954]
metabolization and excretion [3]: rapid metabolization and excretion | side effects [7]: skin rash

Cc1cc(CCCCCCCOc2ccc(C3=NCCO3)cc2)on1 [disoxaril]
antiviral effects in the cell culture [2]: very good antiviral effects | bioavailability [3]: low bioavailability | metabolization and excretion [3]: rapid metabolization and excretion

CCOC(=O)c1ccc(OCCC2CCN(c3ccc(C)nn3)CC2)cc1 [pirodavir]
antiviral effects in the cell culture [2]: very good antiviral effects
